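Interpolation was linear, between the two tested concentrations surrounding the appropriate level; five concentrations were tested over 48 hours in 96-well plates. Abbreviation: GI50, concentration required for 50% inhibition of growth. TGI is the concentration that stops growth completely.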
Key:
Assay in all cases: NCI anticancer screen, dose series, 48 h
SN12C renal = test system: SN12C renal
NCI-H23 lung = test system: NCI-H23 lung
SF-539 CNS = test system: SF-539 CNS
T-47D breast = test system: T-47D breast
UACC-62 melanoma = test system: UACC-62 melanoma
OVCAR-5 ovarian = test system: OVCAR-5 ovarian
U251 CNS = test system: U251 CNS
786-0 renal = test system: 786-0 renal
LOX IMVI melanoma = test system: LOX IMVI melanoma
SNB-75 CNS = test system: SNB-75 CNS
SK-MEL-28 melanoma = test system: SK-MEL-28 melanoma

| SMILES | TGI (SN12C renal) | TGI (NCI-H23 lung) | TGI (SF-539 CNS) | TGI (T-47D breast) | TGI (UACC-62 melanoma) | TGI (OVCAR-5 ovarian) | TGI (U251 CNS) | TGI (786-0 renal) | TGI (LOX IMVI melanoma) | TGI (SNB-75 CNS) | TGI (SK-MEL-28 melanoma) | GI50 (SN12C renal) | GI50 (SF-539 CNS) | GI50 (T-47D breast) | GI50 (SNB-75 CNS) | GI50 (UACC-62 melanoma) | GI50 (OVCAR-5 ovarian) | GI50 (U251 CNS) | GI50 (SK-MEL-28 melanoma) |
| --- | --- | --- | --- | --- | --- | --- | --- | --- | --- | --- | --- | --- | --- | --- | --- | --- | --- | --- | --- |
| CC(=O)[C@]12OC(=O)C3=C1[C@H](CC[C@@H]3C)[C@@H](C)C[C@H]2C=C(C)C | 15.8 µM | 17.9 µM | 16.5 µM | 14.4 µM | 12.6 µM | 15.2 µM | 14.9 µM | 15.7 µM | 15.2 µM |  |  |  |  |  |  |  |  |  |  |
| O=C(c1ccc(Cl)c(Cl)c1)N(C(=O)N1CCN(c2ccccc2)CC1)S(=O)(=O)c1ccccc1 | > 100 µM | 96.2 µM | > 100 µM | > 100 µM | > 100 µM | 64.5 µM | 62.9 µM | > 100 µM | 40.5 µM | > 100 µM | > 100 µM |  |  |  |  |  |  |  |  |
| Cc1c(-c2ccccc2)c(C#N)c2nnn(C)c(=O)n12 | > 100 µM | > 100 µM | > 100 µM | > 100 µM | > 100 µM | > 100 µM | > 100 µM | > 100 µM | > 100 µM | > 100 µM | > 100 µM |  |  |  |  |  |  |  |  |
| CC(=O)Oc1cc(/C=C/c2ccc(O)cc2)cc(OC(C)=O)c1 | 68.5 µM | 53.9 µM | 41.5 µM | > 100 µM | 67.3 µM | > 100 µM | > 100 µM | > 100 µM |  | > 100 µM | > 100 µM |  |  |  |  |  |  |  |  |
| CCCCCCCCc1ccc(CCC(N)(CO)CO)cc1 | 13.9 µM |  | 3.39 µM | 3.44 µM | 3.31 µM | 3.08 µM | 3.32 µM |  |  | 4.2 µM | 3.2 µM | 3.5 µM | 1850 nM | 1780 nM | 2130 nM | 1720 nM | 1640 nM | 1800 nM | 1800 nM |
| CC(=O)C(N=NC1CCC(S(=O)(=O)NB2N=CS2)CC1)C(=O)Nc1ccccc1C (centres undefined) | 34.7 µM | 28.9 µM | 32.4 µM |  | 34.8 µM | 39.3 µM | 26.6 µM |  |  | 33.8 µM | 30.8 µM |  |  |  |  |  |  |  |  |
| Cc1ccccc1C1CC(=O)CC(c2ccccc2C)C12C(=O)NC(=S)NC2=O (centres undefined) | 67 µM | > 100 µM | 48.9 µM | > 100 µM | 38.2 µM | > 100 µM | > 100 µM | > 100 µM | 35.8 µM | 70.7 µM | 44.5 µM |  |  |  |  |  |  |  |  |
| NC(=S)N/N=C1\CC(c2ccccc2)Nc2ccccc21 (centres undefined) | > 100 µM | > 100 µM | > 100 µM |  | > 100 µM |  | > 100 µM |  | > 100 µM | 49.1 µM | > 100 µM |  |  |  |  |  |  |  |  |
| C[N+]1(c2ccccc2)C=C(c2ccccc2)SC1=S (centres undefined) | > 100 µM | > 100 µM | > 100 µM | 8.63 µM | > 100 µM | > 100 µM | > 100 µM | > 100 µM | > 100 µM |  | > 100 µM |  |  |  |  |  |  |  |  |
| Cc1ncc(COP(=O)(O)O)c(C)c1O | > 100 µM | > 100 µM |  | > 100 µM | > 100 µM | > 100 µM | > 100 µM | > 100 µM | > 100 µM |  | > 100 µM |  |  |  |  |  |  |  |  |
| CC(C)=CC[C@H]1C[C@@]2(CC=C(C)C)C(=O)/C(=C(/O)c3ccccc3)C(=O)[C@](CC=C(C)C)(C2=O)C1(C)C | 14.8 µM | 73.9 µM | 48 µM | 35.2 µM | 13.6 µM | 19.5 µM | 20.8 µM | 21.4 µM | 17 µM | 33.4 µM | 30.3 µM |  |  |  |  |  |  |  |  |

— PubChem BioAssay (NCI)
